Measurements: patent US20250235531A1, “MUCOSAL ADMINISTRATION METHODS AND FORMULATIONS” (priority 2022, published 2025)

How the values were obtained:
[1] = Luciferase mRNA nanoparticle biophysical data (DLS diameter and PDI, Ribogreen encapsulation); format: physicochemical; details: luciferase mRNA nanoparticles (IL1:DSPC:cholesterol:PEG-DMG-2K) modified with the lipid amine; for Diameter (nm) / PDI: DLS; for % Encapsulation (Ribogreen): Ribogreen assay
Description: Lipids are dissolved in ethanol at a concentration of 24 mg/mL and molar ratios of 49.0:11.2:39.3:0.5 (IL1:DSPC:cholesterol:PEG-DMG-2K) and mixed with the acidification buffer (45 mM acetate buffer at pH 4). The lipid solution and acidification buffer are mixed using a multi-inlet vortex mixer at a 3:7 volumetric ratio of lipid:buffer for mixer 1 and mixer 2 and a 1:3 volumetric ratio of lipid:buffer (25% ethanol) for mixer 3. After a 5 second residence time, the resulting nanoparticles are mixed with 55 mM sodium acetate at pH 5.6 at a volumetric ratio of 5:7 of nanoparticle:buffer. See Table 24 for mixing parameters. The resulting dilute nanoparticles are then buffer exchanged and concentrated using tangential flow filtration (TFF) into a final buffer containing 5 mM sodium acetate pH 5.0. Then a 70% sucrose solution in 5 mM acetate buffer at pH 5 is subsequently added.
The resulting nanoparticles at a lipid concentration of 7.33 mg/mL in 5 mM acetate (pH 5) and 75 g/L sucrose are mixed with mRNA (luciferease) at a concentration of 0.625 mg/mL in 42.5 mM sodium acetate pH 5.0, with N:P of 4.93. The nanoparticle solution and nanoparticles are mixed using a multi-inlet vortex mixer at a 3:2 volumetric ratio of nanoparticle:mRNA. Once loaded with mRNA, these intermediate nanoparticles undergo a 300 second residence time prior addition of neutralization buffer containing 120 mM TRIS pH 8.12 at a volumetric ratio of 5:1 of nanoparticle:buffer.
For HeLa studies evaluating luciferase protein expression, PEG-DMG-2K dissolved in a 20 mM TRIS buffer (pH 7.5) is added to the neutralized intermediate nanoparticle solution at a ratio of 1:6, bringing the solution to the final molar ratios of IL1:DSPC:cholesterol:PEG-DMG-2K of 48.5:11.1:38.9:1.5%. This nanoparticle formulation is then modified with lipid amines. In a typical example, nanoparticle formulation at a concentration of 0.18 mg/mL mRNA and a 0.56 mL volume is modified with lipid amine SA50 (467.2 nmol) prepared in buffer containing 20 mM IRIS, 14.3 mM sodium acetate, 32 g/L sucrose and 140 mM NaCl—pH 7.5 at a volumetric ratio of 1:1 of nanoparticle: buffer.
Resulting nanoparticle suspensions are filtered through a 0.8/0.2 μm capsule filter and filled into glass vials at an mRNA strength of about 0.1-1 mg/mL Biophysical data (Diameter and PDI from DLS measurements and % Encapsulation using Ribogreen assay) for luciferase mRNA nanoparticles with lipid amines is shown in Table 26.

HeLa = experiment: Protein expression in human cervical cancer epithelial cell (HeLa) model, NPI-Luc mRNA LNPs; format: cell-based; details: LNP core Compound 18, DSPC
Description: NPI-Luc is a dual read reporter made by adding a 5×V5 tag and a C-myc nuclear localization sequence at the N-terminus of Firefly Luciferase to enhance the signal to noise ratio. Protein expression can be detected using OneGLo assays with luminescence readout or by immunofluorescence with anti-V5 antibodies. Protein expression was evaluated according to the procedure outlined in Example 6. The LNPs are dosed in 4 wells and the average response was reported. For the HeLa assay the luminescence read (RLU) were normalized to cell counts.

healthy HBE cells = experiment: LNP cellular uptake and protein expression in healthy HBE cells; format: cell-based, human; details: NPI-Luc mRNA, LNP core Compound 18, DSPC, Cholesterol, and DMG-PEG 2K
Description: NP-Luc is a dual read reporter made by adding a 5×V5 tag and a C-myc nuclear localization sequence at the N-terminus of Firefly Luciferase to enhance the signal to noise ratio. Protein expression can be detected using OneGLo assays with luminescence readout or by immunofluorescence with anti-V antibodies. LNP cellular uptake and protein expression was evaluated according to the procedure outlined in Example 5.

[2] = Nanoparticle zeta potential (Malvern Zetasizer); format: physicochemical; details: [mRNA] 0.01 mg/mL in 0.1×PBS, core LNP Compound 18, DSPC, Cholesterol, and DMG-PEG 2K
Description: LNPs were prepared according to Example 1. Zeta potential was measured by diluting LNPs to [mRNA]0.01 mg/mL in 0.1×PBS on a Malvern Zetasizer (Nano ZS).

[3] = tested on: respiratory epithelium (trachea, bronchi); experiment: LNP protein expression in rat respiratory epithelium after single intratracheal dose (anti-V5 IHC); details: intratracheal ~1.2 mpk, NPI-Luc mRNA, LNP core Compound 18, DSPC, Cholesterol, and DMG-PEG 2K
Description: (§1) Animals are anesthetized under isoflurane. The tongue is displaced and a small diameter cannula is inserted into the trachea (oropharyngeal route). The cannula tip is passed through the vocal chords, down the trachea so that the tip is very near, but not touching, the carina. Upon placement, 50 μL (mouse) or 200 μL (rat) of formulation is infused into the lungs. After 30 seconds upright, animads are released into a recovery cage and returned to their respective cages once recovered.
(§2) Trachea, lungs and for the aerosol study nasal cavities, nasopharynx and larynx are collected for analysis. Lungs are inflated with 10% NBF fixative and trachea tied off to maintain inflation. Lungs are removed en bloc with attached trachea, bronchi and lobes. […]
(§3) IHC was performed on FFPE sections using the Leica Bond RX autostainer. NPI-Luc protein expression was detected by anti-V5 tag antibody at a 1:100 dilution. V5 antibody was detected with the Bond Polymer Refine Detection kit followed by hematoxylin and bluing reagent counterstain. […] Trachea, lung and/or nasal cavity images were analyzed to capture total tracheal, bronchial or nasal epithelial cells and data expressed when appropriate as % V5 positive epithelial cells per total epithelial cells per animal. […]

[4] = tested on: respiratory epithelium (trachea, bronchi); experiment: LNP protein expression in mouse respiratory epithelium after single intratracheal dose (anti-V5 IHC); details: intratracheal ~0.7 mpk, NPI-Luc mRNA, LNP core Compound 18, DSPC, Cholesterol, and DMG-PEG 2K
Description: as §1, §2, §3

Structure (SMILES)	Diameter (nm) [1] [nm]	PDI [1]	% Encapsulation (Ribogreen) [1] [%]	Average accumulation of LNP in healthy HBE (% positive cells) (healthy HBE cells; β-sitosterol)	Average protein expression in healthy HBE (% V5 positive cells) (healthy HBE cells; β-sitosterol)	Zeta Potential (mV) ([2]; β-sitosterol)	further results
CC[C@H](CC[C@@H](C)[C@H]1CC[C@H]2[C@@H]3CC=C4C[C@@H](SSCCC(=O)N(CCC5CC(N)C5)CCC5CC(N)C5)CC[C@]4(C)[C@H]3CC[C@]12C)C(C)C.Cl.Cl (stereo partly drawn) [SA187, N,N-bis(2-(3-aminocyclobutyl)ethyl)-3-(((3S,8S,9S,10R,13R,14S,17R)-17-((2R,5R)-5-ethyl-6-methylheptan-2-yl)-10,13-dimethyl-2,3,4,7,8,9,10,11,12,13,14,15,16,17-tetradecahydro-1H-cyclopenta[a]phenanthren-3-yl)disulfaneyl)propanamide dihydrochloride]	73	0.17	99.0	–	–	–	–
CC(C)c1ccc2c(c1)CC[C@H]1[C@](C)(CNC(=O)CCN(C)C)CCC[C@]21C [SA16]	–	–	–	–	–	–	Average protein expression per cell (RLU per cell) (HeLa; Cholesterol, and Compound 428): 14.5 RLU per cell
CC[C@H](CC[C@@H](C)[C@H]1CC[C@H]2[C@@H]3CC=C4C[C@@H](OC(=O)N(CCCCNCCC(C)N)CCC(C)N)CC[C@]4(C)[C@H]3CC[C@]12C)C(C)C.Cl.Cl.Cl (stereo partly drawn) [SA111, (3S,8S,9S,10R,13R,14S,17R)-17-((2R,5R)-5-ethyl-6-methylheptan-2-yl)-10,13-dimethyl-2,3,4,7,8,9,10,11,12,13,14,15,16,17-tetradecahydro-1H-cyclopenta[a]phenanthren-3-yl (3-aminobutyl)(4-((3-aminobutyl)amino)butyl)carbamate trihydrochloride]	76	0.18	99.6	–	–	–	–
CC(C)CCC[C@@H](C)[C@H]1CC[C@H]2[C@@H]3CC=C4C[C@@H](OC(=O)N(CCCN)CCCCNCCCN)CC[C@]4(C)[C@H]3CC[C@]12C [SA3]	–	–	–	–	–	–	Average protein expression per cell (RLU per cell) (HeLa; Cholesterol, and DMG-PEG 2K): 111.0 RLU per cell; Average accumulation of LNP in healthy HBE (% positive cells) (healthy HBE cells): 43.7 % positive cells; Average protein expression in healthy HBE (% V5 positive cells) (healthy HBE cells): 9.4 % V5 positive cells; Zeta Potential (mV) [2]: 10.6 mV; Average % V5 positive cells/total cells ([3]; Rat Bronchi (left and right lung)): 4.95 % V5 positive cells/total cell; Average % V5 positive cells/total cells ([3]; Rat Trachea): 2.97 % V5 positive cells/total cell; Average % V5 positive cells/total cells ([4]; Mouse Bronchi (left lung)): 9.33 % V5 positive cells/total cell; Average % V5 positive cells/total cells ([4]; Mouse Trachea): 40.7 % V5 positive cells/total cell
CC(C)CCC[C@@H](C)[C@H]1CC[C@H]2[C@@H]3CC=C4C[C@@H](OC(=O)N(CCCN)CCCCN)CC[C@]4(C)[C@H]3CC[C@]12C [SA29]	–	–	–	56.2	12.1	8.3	–
CC(C)CCC[C@@H](C)[C@H]1CC[C@H]2[C@@H]3CC=C4C[C@@H](OC(=O)CCC(=O)N(CCCN)CCCCN)CC[C@]4(C)[C@H]3CC[C@]12C [SA31]	–	–	–	43.2	11.1	8.6	–
CC(C)CCC[C@@H](C)[C@H]1CC[C@H]2[C@@H]3CC=C4C[C@@H](OC(=O)NCCCNCCCCN)CC[C@]4(C)[C@H]3CC[C@]12C [SA30]	–	–	–	49.9	11.9	8.7	–
CC(C)CCC[C@@H](C)[C@H]1CC[C@H]2[C@@H]3CC=C4C[C@@H](OC(=O)CCCC(=O)N(CCC5CC(N)C5)CCC5CC(N)C5)CC[C@]4(C)[C@H]3CC[C@]12C.Cl.Cl (stereo partly drawn) [SA188, (3S,8S,9S,10R,13R,14S,17R)-10,13-dimethyl-17-((R)-6-methylheptan-2-yl)-2,3,4,7,8,9,10,11,12,13,14,15,16,17-tetradecahydro-1H-cyclopenta[a]phenanthren-3-yl 5-(bis(2-(3-aminocyclobutyl)ethyl)amino)-5-oxopentanoate dihydrochloride]	80	0.13	99.6	–	–	–	–
CC(C)CCC[C@@H](C)[C@H]1CC[C@H]2[C@@H]3CC=C4C[C@@H](OC(=O)NCCN(C)C)CC[C@]4(C)[C@H]3CC[C@]12C [SA4]	–	–	–	–	–	–	Average protein expression per cell (RLU per cell) (HeLa; Cholesterol, and Compound 428): 248.5 RLU per cell
CC[C@H](CC[C@@H](C)[C@H]1CC[C@H]2[C@@H]3CC=C4C[C@@H](OC(=O)N(CCC5CC(N)C5)CCC5CC(N)C5)CC[C@]4(C)[C@H]3CC[C@]12C)C(C)C.Cl.Cl (stereo partly drawn) [SA186, (3S,8S,9S,10R,13R,14S,17R)-17-((2R,5R)-5-ethyl-6-methylheptan-2-yl)-10,13-dimethyl-2,3,4,7,8,9,10,11,12,13,14,15,16,17-tetradecahydro-1H-cyclopenta[a]phenanthren-3-yl bis(2-(3-aminocyclobutyl)ethyl)carbamate dihydrochloride]	73	0.14	99.3	–	–	–	–
CC(C)CCC[C@@H](C)[C@H]1CC[C@H]2[C@@H]3CC=C4C[C@@H](OC(=O)NCCNC(=N)N)CC[C@]4(C)[C@H]3CC[C@]12C [SA23]	–	–	–	34.3	9.1	12.7	–
CC[C@H](CC[C@@H](C)[C@H]1CC[C@H]2[C@@H]3CC=C4C[C@@H](OC(=O)N(CC56CC(N)(C5)C6)CC56CC(N)(C5)C6)CC[C@]4(C)[C@H]3CC[C@]12C)C(C)C.Cl.Cl [SA189, (3S,8S,9S,10R,13R,14S,17R)-17-((2R,5R)-5-ethyl-6-methylheptan-2-yl)-10,13-dimethyl-2,3,4,7,8,9,10,11,12,13,14,15,16,17-tetradecahydro-1H-cyclopenta[a]phenanthren-3-yl bis((3-aminobicyclo[1.1.1]pentan-1-yl)methyl)carbamate dihydrochloride]	78	0.33	98.1	–	–	–	–
